For orientation: melting point means the temperature of the solid-liquid transition.

Bounds are passed on as bounds.

Turning to `CC(=O)CCCCCCCc1ccc(O)c(O)c1`, the melting point fell in the range of 73 to 75 °C.
For `Nc1ccc(CCC(=O)Nc2ccc(Cl)cc2Cl)cc1N` the value was 149 to 150 °C; for `O=[N+]([O-])CS(=O)(=O)c1ccc(O)cc1`, 93 to 95 °C; for `CCOC(=O)/C(CCO)=C(\c1ccc(Cl)cc1)c1ccc(S(C)(=O)=O)cc1`, 128 °C.
For `Nc1ccc(CCCCOCCCCCCNCC(O)c2cc(O)cc(O)c2)cc1` (stereo not drawn) the value was 157 to 159 °C; for `COc1ccc(C(=O)Nc2ccc(F)c(F)c2)cc1NS(=O)(=O)c1ccc(C#N)cc1`, 228 to 230 °C.
The value for `CN1C(=O)C[C@]2(c3ccccc3)CCCC[C@H]2C1=O` (relative stereo) was 151 to 153 °C; that for `COc1ccc(C(=O)Nc2nc(C)c(C(=O)NCc3ccccc3)s2)cc1` was 203 to 204 °C.
In the case of `COc1cc(OCc2ccccn2)ccc1C=O`, the melting point is 93.6 °C.
The value for `COc1cc(C(C)C)ccc1C1(NC(N)=O)C(=O)c2ccccc2C1=O` was 272 to 274 °C; that for `CN(C(=O)Nc1ccccc1CCc1cc(C(C)(C)C)c(O)c(C(C)(C)C)c1)C1CCN(Cc2ccc(F)cc2)CC1` was 177 to 178 °C; that for `CCOC(=O)c1cn(Cc2csnn2)c2cc(F)c(F)cc2c1=O` was 234 to 237 °C.
Take `Cc1cc2c(s1)Oc1cccc(C)c1NC2=O`: the melting point lay within 198 to 200 °C.
For `CCOCC(C)Oc1ccc(CSc2cnn(C(C)(C)C)c(=O)c2Cl)cc1` (stereo not drawn) the value was 89.2 to 90.2 °C.
The value for `CSc1ccc2cc(Nc3ccc(O)cc3)ccc2c1` was 127 to 128 °C; that for `OC(CNc1cc(Cl)c(Cl)cc1Cl)Cn1ccnc1` (stereo not drawn) was 156 to 158 °C.
For `CNC(=O)NS(=O)(=O)c1cc(CCNC(=O)/C=C/c2cccs2)ccc1OCCOC` the value was 99 °C.
In turn, `CSc1nc(Cl)c2ncccc2n1` registered a melting point of 120 to 121 °C.
The value for `Cc1n[nH]c(=O)n1-c1ccc([N+](=O)[O-])cc1` was 226 °C; that for `O=C1c2c(Cl)cccc2-c2cc(O)cc3cccc1c23` was 308 to 312 °C.
For `C#CCNC(=O)C(C#N)=C1CC(C)(C)c2cc(OC)c(OC)cc21` the value was 202 to 205 °C; for `Cc1nnc2n1-c1sc(CC(=O)N3CCCCC3)cc1C(c1ccccc1Cl)=NC2C` (stereo not drawn), 182 to 183 °C.
The value for `Cc1cn2ccc3c(c2n1)NC(c1ccccc1)C(OC(=O)C(C)(C)C)C3=O` (stereo not drawn) was 145 to 147 °C; that for `CC1(C)CC(NC(=O)CCC(=O)NC2CC(C)(C)N(OC3CCCCC3)C(C)(C)C2)CC(C)(C)N1OC1CCCCC1` was 230 to 234 °C; that for `O=Cc1c(NC(Cc2ccccc2)C(=O)O)ncnc1-c1ccc(OCc2ccccc2)cc1` (stereo not drawn) was over 300 °C.
For the molecule `Cn1cc(-c2cccc(S(=O)(=O)n3ccc(/C=C/C(=O)NO)c3)c2)cn1`, the melting point lay in the range of 155 to 160 °C.
The value for `CCCCc1nc2c(N)nc3ccccc3c2n1CCCNC(=O)Nc1ccccc1` was 191 to 192 °C; that for `O=C(O)Cn1c(=O)c(=O)[nH]c2ccc3ccc(-n4ccc(CN5CCN(C(c6ccccc6)c6ccccc6)CC5)c4)cc3c21` was over 250 °C; that for `COc1ccc2cc(-c3ccc(C(=O)O)cc3)ccc2c1` was 288 to 289 °C.
For `CC(C)(C#N)c1c(Cl)cc([N+](=O)[O-])cc1Cl` the value was 80 °C; for `Cc1cc(C)nc(N=S(C)C)n1`, 117 to 120 °C; for `COC(=O)c1ccccc1S(=O)(=O)NC(=O)Nc1nc(OC)nc(C2CC2)n1`, 166 to 168 °C.
In turn, `COc1cc(OC)c(-c2cccs2)cc1/C=C/C(=O)c1ccc(S(=O)(=O)Nc2cc[nH]n2)cc1` displayed a melting point of 142 to 145 °C.
On to `C#Cc1c(-c2ccc(F)cc2)nn(-c2ccccc2)c1C(C)C`, for which the melting point fell in the range of 117 to 118 °C.
The value for `COCCn1nc(C(N)=O)cc1CC(C)(C)C#N` was 130 to 131 °C; that for `COC(=O)c1c([N+](=O)[O-])cccc1[N+](=O)[O-]` was 150 to 152 °C; that for `CCOc1ccccc1C1(O)C(=O)Nc2cc(C)c(Cl)cc21` (stereo not drawn) was 253 °C.
For `CC(C)(C)[C@H](NC(=O)CCC1c2ccccc2-c2ccccc21)C(=O)O` the value was 79 to 83 °C; for `CS(=O)(=O)c1cnc(NC(=O)c2cccc(O)c2)s1`, 271 to 272 °C.
The value for `c1ccc(C2=Nc3cccnc3Nc3ccccc32)cc1` was 106 to 108 °C; that for `O=c1c(-c2cccc(F)c2)c(CNc2ncnc3[nH]cnc23)oc2ccccc12` was 211 to 214 °C.
As for `CS(=O)(=O)Nc1ccc(C#CCCN2CC=C(c3ccccc3)CC2)nc1`, the melting point was 138 to 139 °C.
The molecule `N#Cc1cccc(-c2nc(Nc3ccc(C(=O)O)cc3)sc2-c2ccnnc2)c1` gave a melting point of over 275 °C.
The value for `CCn1nc(C)cc1N` was 95 to 96 °C.
For `CCCCCCCCCCCCCCCCCC(=O)Oc1cccc(C(=O)OCC)c1` the value was 57 °C; for `CC(C)(C)OC(=O)NCCCN(CCCCOC(=O)NCNC(=O)CCCCCCNC(=O)OCc1ccccc1)C(=O)OC(C)(C)C`, 115 °C.
`CN1CCN(c2cc(C(=O)Nc3ccc4c(c3)-c3c(c(C(N)=O)nn3-c3ccc(F)cc3)CC4)ccn2)CC1` gave a melting point of 277 to 279 °C.
For `CCCCCCCCCCCCCCCCOc1cc(NS(=O)(=O)c2cc(N)ccc2OCCOC)c(O)cc1C`, the melting point lay within 142 to 144 °C.
For `CCCN(Cc1ccc(-c2ccccc2-c2nc(=O)o[nH]2)cc1)c1nc(C)ncc1C(=O)OCC`, the melting point lay in the range of 176 to 177 °C.
The value for `N#CCCNC(=O)c1cccc(-c2ccc3c(n2)N(c2ccc(Cl)cc2Cl)CC3)c1` was 219 to 220 °C; that for `CS(=O)(=O)c1ccc(-c2cnn(Cc3ccccc3)c(=O)c2Cc2ccc(F)cc2)cc1` was 186 to 189 °C.
For `Cc1cc(C(=O)Nc2cc(-c3c(-c4ccc(F)c(C)c4)nc4cccnn34)ccn2)cc(Cl)n1` the value was 298 to 300 °C.
The molecule `COCc1c(C(=O)c2ccccc2)ncc2[nH]c3ccc(Oc4nccc5ccccc45)cc3c12` yielded a melting point of 159 to 160 °C.
For `CC(C)(C)OC(=O)NCc1cccc(CC(=O)O)c1` the value was 95 to 96.5 °C.
The value for `CCOC(=O)C(=NOCCI)c1csc(NC(c2ccccc2)(c2ccccc2)c2ccccc2)n1` was 110 °C; that for `CCCN(CCN1CCN(c2cccc(Cl)c2Cl)CC1)C1CCc2ncsc2C1` (stereo not drawn) was 104 °C; that for `Cn1cc(-c2ccccc2)c(=O)c(-c2ccc(F)cc2Cl)c1` was 190 to 192 °C.
For `O=C(O)C1Cc2cc(-c3ccccc3)ccc2O1` (stereo not drawn) the value was 186 to 187 °C.
`Cc1ccc(S(=O)(=O)OC[C@@H]2NC(=O)[C@@H]2N=[N+]=[N-])cc1` (relative stereo): the melting point lay within 77 to 78 °C.
For `CC(C)(C)n1ncc(SCc2ccc(Cl)cc2)c(Cl)c1=O` the value was 142 to 143 °C; for `CCOC(=O)N1CCc2nc(-c3ccncc3)cc(=O)n2CC1`, 191 to 193 °C.
For `CCN(CC)CCc1c[nH]c2ccc(N(CC)S(=O)(=O)c3ccc4ccccc4c3)cc12` the value was 49 to 50 °C.
The value for `COC(=O)C(C)(C)OCc1cc2nc(Cl)ccc2n1S(=O)(=O)c1ccccc1` was 84 to 87 °C; that for `CCCc1nc2c(N)nc3cc(O)ccc3c2s1` was 236 to 239 °C; that for `COc1ccc(Nc2c(C#N)cnc3cc(OC)c(OC)cc23)cc1Cl` was 278 to 280 °C.
`CCCc1cc2cc(OCC(=O)O)c(Cl)c(Cl)c2s1` had a melting point of 165 to 166 °C.
On to `Cc1nc2c(N)nc3c(c2n1CCCCS(C)(=O)=O)CCCC3`, for which the melting point lay in the range of 213 to 216 °C.
The molecule `CC(C)N1CCN(c2ccc(N)cc2)C(=O)C1` came in with a melting point of 156 to 159 °C.
The value for `CC(C)c1cccc([N+](=O)[O-])c1C#N` was 121 to 124 °C.
For `C[Si](C)(C)CCOC(=O)c1cccc(NC(=O)NCC(=O)O)c1` the value was 173 °C.
The value for `CON1CCC2(CC1)C(O)=C(c1c(C)cc(C)cc1C)C(=O)N2OC1CCCCC1` was 115 to 118 °C.
For the molecule `CC(C)c1cccc(C(C)C)c1NC(=O)N(C(C)C)C1COc2ccccc2C1` (stereo not drawn), the melting point fell in the range of 169 to 172 °C.
`Cc1oc(/C=C/c2ccccc2)nc1COc1ccc(CCCn2ccnc2)cc1`: the melting point is 94 to 95 °C.
`Cc1cnc(Oc2cccc(C(F)(F)F)c2)c(C(=O)Nc2ccc(F)cc2F)c1` displayed a melting point of 133 to 135 °C.
With `COC(=O)c1ccc(N=Cc2ccccc2)cn1`, the melting point fell in the range of 84 to 89 °C.
As to `N#Cc1ccc(NC(=O)c2cccc(OCc3ccc(C(F)(F)F)cc3)c2)cc1`, the melting point lay within 167 to 168 °C.
The value for `OC(c1ccc2c(c1)CCN2)(C(F)(F)F)C(F)(F)F` was 161 to 162 °C; that for `COc1ccc(N2CCOCC2)c2sc(NC(=O)N3CCC(C)(O)CC3)nc12` was 236 °C; that for `COc1ccc2c(O)cccc2c1` was 73 to 75 °C.
The value for `O=C1CCC(O)=C1Cc1cccc(CCNS(=O)(=O)c2ccc(Cl)cc2)c1` was 176 to 178 °C.
For `CCOC(=O)Nc1cscc1C(=O)OC` the value was 52 °C; for `Clc1cc(Cl)c(Cl)nn1`, 57 to 58 °C; for `Cc1ccccc1NC(=O)Nc1ccc(CC(=O)ON2C(=O)CCC2=O)cc1`, 211 to 212 °C.
With `C1CNCCNCCCNCCNCCNC1`, the melting point lay within 49 to 51 °C.
For `CN1Cc2c(-c3nc(CN(CC4CC4)CC4CC4)no3)ncn2-c2ccccc2C1=O` the value was 170 to 174 °C; for `CC(=O)NCCNC(=O)c1ccc(Cl)cc1`, 222 to 224 °C.
The value for `O=[N+]([O-])c1ccc(F)c2ncccc12` was 132 to 133 °C; that for `CON(c1ccc([N+](=O)[O-])cc1[N+](=O)[O-])S(=O)(=O)c1cccc(C)c1` was 148 to 150 °C.

Source of the values: a melting point compilation (Tetko et al.; mined from patent text by program, amines drawn as free bases though some values may be those of a salt).
